Measurements: paper PMC12249711, “Comprehensive Evaluation of 1H-Isoindole-1,3(2H)-Dione Derivatives: Pharmacokinetic Studies and Analgesic Potential in Various Pain Models” (International Journal of Molecular Sciences, 2025)

Key:
mice [1] = assay: Streptozotocin-induced diabetic neuropathy, hot plate test (thermal hyperalgesia); format: in vivo, Albino Swiss mice; details: diabetic (STZ) mice, 10 mg/kg i.p.; for Analgesic activity (hot plate): vs pre-drug latency
Method: The induction of diabetes neuropathy in mice was achieved through the administration of streptozotocin (STZ), dissolved in PBS at a dose of 200 mg/kg in a constant volume of 0.1 mL/10 g of mouse body weight, intraperitoneally; (n = 50). Blood glucose levels were measured immediately prior to the administration of streptozotocin and 14 and 21 days following this administration in order to confirm the presence of hyperglycemia. For this purpose, 5 µL of blood was drawn from the tail vein of the mice using a strip glucose meter (AccuChek Active, Roche, Boulogne-Billancourt, France).
To assess increased sensitivity to thermal stimuli, we used a hot plate testing apparatus (Panlab/Harvard Apparatus, Cornellà de Llobregat, Spain), following the methodology originally described by. In this procedure, after determining the baseline pain response time, 30 min after drug administration, mice were placed on a hot plate maintained at 55 °C and monitored for pain-related behaviors such as licking their hind paws or jumping. To avoid potential damage to paw tissue, a time limit of 45 s was set.

rats = assay: Carrageenan-induced paw edema (plethysmometer); format: in vivo, Wistar rats; details: for Change in Edema Volume: mean ± SEM, rats; for Reduction in edema volume: vs control
Method: The acute and local inflammation and paw edema was induced by intraplantar (i.pl.) injection of 0.1 mL of 1% carrageenan solution in PBS into the rat’s right hind paw, according to the modified method of Winter and Lence, as described previously; (n = 84). […] Vehicle (1% Tween 80) was administered by the same route as the tested compounds.

mice [2] = assay: Capsaicin-induced neurogenic pain test; format: in vivo, Albino Swiss mice; details: vs vehicle
Method: The examined compounds were administered 30 min before the test (n = 112). The pain reaction was induced by injecting 20 μL of a capsaicin solution prepared in saline (1.6 μg capsaicin per mouse paw) into the dorsal surface of the right hind paw for further details. The animals were immediately placed individually into glass beakers and the amount of time spent licking the injected paw was recorded for 5 min with a chronometer.

[3] = set-up: method as in PMID 35396875; details: initial in vivo screening; cited from earlier work
[4] = 10 mg/kg i.p., 1 h after carrageenan
[5] = 10 mg/kg i.p., 2 h after carrageenan
[6] = 10 mg/kg i.p., 3 h after carrageenan
[7] = 20 mg/kg i.p., 1 h after carrageenan
[8] = 20 mg/kg i.p., 2 h after carrageenan
[9] = 20 mg/kg i.p., 3 h after carrageenan

O=C1c2ccccc2C(=O)N1CC(O)CN1CCN(c2ccccc2)CC1 (stereo not drawn) [Compound F1]
Pain response latency time after compound administration (hot plate, 55 °C) (mice [1]): 25.59 ± 1.84 s
Analgesic activity (hot plate) (mice [1]): 56.6%
Change in Edema Volume (rats; [4]): 1.14 ± 0.05 mL
Change in Edema Volume (rats; [5]): 1.51 ± 0.09 mL
Change in Edema Volume (rats; [6]): 1.67 ± 0.09 mL
Reduction in edema volume (rats; 10 mg/kg, 1 h): 27.8%
Reduction in edema volume (rats; 10 mg/kg, 2 h): 17.5%
Reduction in edema volume (rats; 10 mg/kg, 3 h): 17%
Change in Edema Volume (rats; [7]): 1.09 ± 0.02 mL
Change in Edema Volume (rats; [8]): 1.15 ± 0.07 mL
Change in Edema Volume (rats; [9]): 1.55 ± 0.09 mL
Reduction in edema volume (rats; 20 mg/kg, 2 h): 37.2%
Reduction in edema volume (rats; 20 mg/kg, 3 h): 22.1%
Reduction of capsaicin-induced neurogenic pain (mice [2]; 5 mg/kg i.p.): 31.7%
Reduction of capsaicin-induced neurogenic pain (mice [2]; 10 mg/kg i.p.): 40.8%
Reduction of capsaicin-induced neurogenic pain (mice [2]; 20 mg/kg i.p.): 69.0%

COc1ccccc1N1CCN(CC(O)CN2C(=O)c3ccccc3C2=O)CC1 (stereo not drawn) [Compound F2]
Pain response latency time after compound administration (hot plate, 55 °C) (mice [1]): 30.36 s
Analgesic activity (hot plate) (mice [1]): 49.33%
Change in Edema Volume (rats; [4]): 1.51 ± 0.04 ns mL
Change in Edema Volume (rats; [5]): 1.82 ± 0.03 mL
Change in Edema Volume (rats; [6]): 1.99 ± 0.02 ns mL
Reduction in edema volume (rats; 10 mg/kg, 2 h): approximately 9%
Change in Edema Volume (rats; [7]): 1.15 ± 0.08 mL
Change in Edema Volume (rats; [8]): 1.63 ± 0.04 mL
Change in Edema Volume (rats; [9]): 1.91± 0.03 ns mL
Reduction in edema volume (rats; 20 mg/kg, 1 h): 26.8%
Reduction in edema volume (rats; 20 mg/kg, 2 h): 17.7%
Reduction of capsaicin-induced neurogenic pain (mice [2]; 5 mg/kg i.p.): 31%
Reduction of capsaicin-induced neurogenic pain (mice [2]; 10 mg/kg i.p.): 56%
Reduction of capsaicin-induced neurogenic pain (mice [2]; 20 mg/kg i.p.): 74.7%

O=C1c2ccccc2C(=O)N1CC(O)CN1CCN(c2cccc(C(F)(F)F)c2)CC1 (stereo not drawn) [Compound F3]
Pain response latency time after compound administration (hot plate, 55 °C) (mice [1]): 24.24 ± 1.46 s
Analgesic activity (hot plate) (mice [1]): 42.92%
Change in Edema Volume (rats; [4]): 1.37 ± 0.04 ns mL
Change in Edema Volume (rats; [5]): 1.70 ± 0.04 ns mL
Change in Edema Volume (rats; [6]): 1.89 ± 0.03 mL
Reduction in edema volume (rats; 10 mg/kg, 3 h): 9.5%
Change in Edema Volume (rats; [7]): 1.14 ± 0.05 mL
Change in Edema Volume (rats; [8]): 1.47 ± 0.07 mL
Change in Edema Volume (rats; [9]): 1.67 ± 0.06 mL
Reduction in edema volume (rats; 20 mg/kg, 1 h): 16.8%
Reduction in edema volume (rats; 20 mg/kg, 2 h): 19.2%
Reduction in edema volume (rats; 20 mg/kg, 3 h): 20.1%
Reduction of capsaicin-induced neurogenic pain (mice [2]; 20 mg/kg i.p.): 48.46%

O=C1c2ccccc2C(=O)N1CC(O)CN1CCN(C(c2ccccc2)c2ccccc2)CC1 (stereo not drawn) [Compound F4]
Pain response latency time after compound administration (hot plate, 55 °C) (mice [1]): did not affect the latency time
Change in Edema Volume (rats; [4]): 1.37 ± 0.04 mL
Change in Edema Volume (rats; [5]): 1.56 ± 0.06 mL
Change in Edema Volume (rats; [6]): 1.85 ± 0.04 mL
Reduction in edema volume (rats; 10 mg/kg, 1 h): 8.7%
Reduction in edema volume (rats; 10 mg/kg, 2 h): 17%
Reduction in edema volume (rats; 10 mg/kg, 3 h): 15.5%
Change in Edema Volume (rats; [7]): 1.23 ± 0.01 mL
Change in Edema Volume (rats; [8]): 1.47 ± 0.05 mL
Change in Edema Volume (rats; [9]): 1.73 ± 0.02 mL
Reduction in edema volume (rats; 20 mg/kg, 1 h): 18%
Reduction in edema volume (rats; 20 mg/kg, 2 h): 21.8%
Reduction in edema volume (rats; 20 mg/kg, 3 h): 21%
Reduction of capsaicin-induced neurogenic pain (mice [2]; 5 mg/kg i.p.): 42%
Reduction of capsaicin-induced neurogenic pain (mice [2]; 10 mg/kg i.p.): 33.6%
Reduction of capsaicin-induced neurogenic pain (mice [2]; 20 mg/kg i.p.): 57.25%
Activity in central (supraspinal) pain model, hot plate test [3]: inactive
